From US20040077549A1, “Inhibitors of the E2F-1/cyclin interaction for cancer therapy” (priority 2000, published 2004)
Like-named read-outs stand apart in the source and are kept apart here. Where a SMILES comes first, the peptide text is derived from it. Bridges are numbered along the chain shown (N, C = ends). Where no end group is shown, it is not given here. [ ]: non-standard residue; d: D form.

Tests used:
[1] = biological target: E2F-1/Cyclin A interaction (Homo sapiens, UniProt P20248); test: E2F-1/Cyclin A/cdk2 ELISA; format: binding
Procedure: An ELISA was developed to identify antagonists of E2F-1/Cyclin A interaction. This method is based on interactions between three proteins, E2F-1, Cyclin A and cdk2 and is analyzed colorimetrically. This assay was used to determine IC50 values for various synthetic peptides that were used in biological experiments and for SAR studies.
This assay allows determination of IC50 values for various synthetic peptides that were used in biological experiments or for SAR studies.
Nunc Immulon II ELISA plates are coated overnight at 4° C. with 250 μL of […] anti-GST antibody (Pharmacia Biotech) in bicarbonate buffer. Following five washes with wash buffer consisting of 50 mM Tris (pH=7.5), 0.15 M NaCl, and 0.01% Tween-20 (TBST), non-specific sites were blocked for 2 hr at room temperature with 300 μL of assay buffer consisting of 50 mM HEPES (pH=7.5), 0.15 M NaCl, 0.1% Triton X-100, and 5% bovine serum albumin (BSA). Plates were then washed five times in TBST, aspirated dry, and treated with 100 μL of GST-E2F-1 in TBS (25 nM). GST-E2F-1 was incubated at RT for at least 1 hr with non-specific binding (NSB) control wells receiving assay buffer with no protein. Plates were washed five times in TBST and multiple concentrations of test compounds diluted in assay buffer were co-incubated with 5 nM Cyclin A/cdk2 diluted in assay buffer. The Cyclin A/cdk2 complex was freshly prepared by mixing a 1:1 ratio of the two proteins in TBS at 4° C. for 30 min prior to addition to the assay plate. Following incubation for 2 hr at RT, plates were washed five times in TBST, and 100 μL of a 1:500 dilution of a rabbit anti-cdk2 antibody (Santa Cruz) diluted in assay buffer and were added to all wells. Following incubation for at least 1 hr at RT or overnight at 4° C., the plates were washed five times in TBST and 100 μL of a 1:1000 dilution of a HRP-conjugated anti-rabbit IgG antibody (Pierce) were added to all wells. Following a half hour incubation at RT, the plates were washed five times in TBST, aspirated dry, and developed by the addition of 100 μL of a HRP substrate ABTS prepared in sodium citrate buffer (pH=4.2). After 10-15 min, absorbance is read using a microplate reader at 405 nm.

A549 cells = test: Growth inhibition (MTS assay), A549; format: cell-based, Human; conditions: A549, 24 hr
Text: (§1) Evaluation of Growth Inhibition.

WI38/VA13 SV40 cells = conditions: read-out: IC50 growth inhibition; WI38/VA13 SV40, 24 hr, MTS
Procedure: (§4) Evaluation of Growth Inhibition. 3×10^3 cells/well were plated on a 96 well plate at 10% FCS and cultured overnight. The culture medium was discarded, and the cells were washed once with Opti-MEM. The cell monolayers were incubated at 37° C. with peptide solutions at various concentrations for 24 hr. The growth inhibition was evaluated using solutions composed of 3-(4,5-dimethylthiazol-2-yl)-5-(3-carboxymethoxyphenyl)-2-(4-sulfophenyl)-2H-tetrazolium; MTS (from Promega) and phenazine methosulfate; PMS (from Sigma).

MDA-MB-435 cells [2] = test: Growth inhibition (MTS assay), MDA-MB-435; format: cell-based, Human; conditions: MDA-MB-435, 24 hr
Text: as §1

MDA-MB-231 cells = conditions: read-out: IC50 growth inhibition; MDA-MB-231, 24 hr, MTS
Procedure: (§5) MDA-MB-435, U2OS, A549, MDA-MB-231 cells were maintained in DMEM supplemented with 10% FCS. SW480 and HCT-116 were grown in RPMI 1640 supplemented with 10% FCS.
as §4

U2OS cells [3] = test: Growth inhibition (MTS assay), U2OS; format: cell-based, Human; conditions: for IC50: 24 hr, MTS; for cell morphology: beginning at about 3 hr post-treatment; for inhibition as measured by the MTS assay: asynchronous culture of U2OS
Text: as §1

MDA-MB-435 cells [4] = test: Uptake and intracellular compartmentalization (fluorescence microscopy), MDA-MB-435; format: cell-based, Human; conditions: MDA-MB-435, after 30 min of incubation
Procedure: (§2) Peptide Treatment and Fluorescence Microscopy. 4×10^4 cells/well were plated on a 48 well plate at 10% FCS and cultured overnight. […] For detection of fluorescein-labeled peptides, cells were rinsed once with PBS (pH=7.3) and visualized using a fluorescence microscope (Axiovert 135 at 320×).
(§3) Uptake and Intracellular Compartmentalization of Tat Peptides. The internalization of the Tat-mt peptide labeled with fluorescein maleimide on the cysteine residue was investigated. The labeled peptide was verified by mass spectrometry and purified by HPLC before use. […] We further repeated the experiments with incubation of the peptide at 30 and 100 μM for 24 hr in osteosarcoma U2OS cells. […] The peptide was tested under the same conditions after direct labeling with fluorescein maleimide. No variation in the amount and localization of the internalized peptide was observed as compared with the Tat-peptide.

U2OS cells [5] = test: Uptake and intracellular compartmentalization (fluorescence microscopy), U2OS; format: cell-based, Human; conditions: 30 and 100 μM, 24 hr
Procedure: as §2, §3

SW480 cells = conditions: read-out: IC50 growth inhibition; SW480, 24 hr, MTS
Procedure: as §5, §4

HCT-116 cells = conditions: read-out: IC50 growth inhibition; HCT-116, 24 hr, MTS
Procedure: as §5, §4

Rat1 cells = conditions: read-out: IC50 growth inhibition; Rat1, 24 hr, MTS
Procedure: as §4

HeCat cells = conditions: read-out: IC50 growth inhibition, 24 hr, MTS
Procedure: as §4

[6] = linear peptide, read-out: IC50 Linear
[7] = E2F-1/Cyclin A/cdk2 ELISA, read-out: IC50
[8] = cyclic peptides, read-out: ELISA IC50
[9] = cyclized between side-chain amino group of Lys* and carboxyl group of Gly*, read-out: IC50 Cyclic
[10] = original identified sequences (linear), read-out: IC50

CC(=O)N[C@@H](CCCN=C(N)N)C(=O)N[C@@H](CCCCN)C(=O)N[C@@H](CC(C)C)C(=O)N[C@@H](Cc1ccccc1)C(=O)NCC(=O)O [Ac-Arg-Lys-*Leu-Phe-Gly* (Linear), Ac-Arg-Lys-*Leu-Phe-Gly*]
IC50 [1, 6]: 30 µM

CC(C)C[C@@H]1NC(=O)[C@@H](NC(=O)[C@H](CCCNC(=N)N)NC(=O)[C@H](CCCCN)NC(=O)[C@H](C)NC(=O)[C@@H]2CCCN2C(=O)CNC(=O)[C@H](CCCNC(=N)N)NC(=O)[C@H](CCCNC(=N)N)NC(=O)[C@H](CCCNC(=N)N)NC(=O)[C@H](CCC(N)=O)NC(=O)[C@H](CCCNC(=N)N)NC(=O)[C@H](CCCNC(=N)N)NC(=O)[C@H](CCCCN)NC(=O)[C@H](CCCCN)NC(=O)[C@H](CCCNC(=N)N)NC(=O)CNC(=O)[C@@H](N)Cc2ccc(O)cc2)CCCCNC(=O)CNC(=O)[C@H](Cc2ccccc2)NC1=O [Tat-cyclic, YGRKKRRQRRRG PAKR(KLFG)] (H-YGRKKRRQRRRGPAKRKLFG; lactam 17-C)
IC50 [1]: 0.1 to 1 µM
IC50 (A549 cells): 26 to 46 µM
IC50 (WI38/VA13 SV40 cells): 6 to 7 µM
IC50 (MDA-MB-435 cells [2]): 6 to 7 µM
IC50 (MDA-MB-231 cells): 6 to 7 µM
IC50 (U2OS cells [3]; U2OS): 6 to 7 µM
cell morphology (U2OS cells [3]; U2OS): rounded morphology
inhibition as measured by the MTS assay (U2OS cells [3]): dose-dependent inhibition

CC(C)C[C@@H]1NC(=O)[C@@H](NC(=O)[C@H](CCCNC(=N)N)NC(=O)[C@H](CCCCN)NC(=O)[C@H](C)NC(=O)[C@H]2CCCN2)CCCCNC(=O)CNC(=O)[C@H](Cc2ccccc2)NC1=O [compound 2, Pro-Ala-Lys-Arg-(Lys-Leu-Phe-Gly)] (H-[dP]AKRKLFG; lactam 5-C)
IC50 [1, 7]: 0.001 µM
IC50 [1, 8]: 0.001 µM
IC50 [1, 9]: 0.001 µM

CC(=O)N[C@@H](C)C(=O)N[C@@H](CCCCN)C(=O)N[C@@H](CCCNC(=N)N)C(=O)N[C@H]1CCCCNC(=O)CNC(=O)[C@H](Cc2ccccc2)NC(=O)[C@H](CC(C)C)NC1=O [compound 3, Ac-Ala-Lys-Arg-(Lys-Leu-Phe-Gly)] (Ac-AKRKLFG; lactam 4-C)
IC50 [1, 8]: 0.01 µM
IC50 [1, 9]: 0.01 µM

CC(=O)N[C@@H](CCCCN)C(=O)N[C@@H](CCCNC(=N)N)C(=O)N[C@H]1CCCCNC(=O)CNC(=O)[C@H](Cc2ccccc2)NC(=O)[C@H](CC(C)C)NC1=O [compound 4, Ac-Lys-Arg-(Lys-Leu-Phe-Gly)] (Ac-KRKLFG; lactam 3-C)
IC50 [1, 7]: 0.02 µM
IC50 [1, 8]: 0.02 µM
IC50 [1, 9]: 0.02 µM

Ac-AKRKLFG [Ac-Ala-Lys-Arg-Lys-*Leu-Phe-Gly*]
IC50 [1, 6]: 0.2 µM

Ac-KRKLFG [Ac-Lys-Arg-Lys-*Leu-Phe-Gly* (Linear), Ac-Lys-Arg-Lys-*Leu-Phe-Gly*]
IC50 [1, 6]: 1 µM

FluMalCXYGRKKRRQRRRG PVKARLDL [FITC-Tat-mt]
intracellular localization (MDA-MB-435 cells [4]): mainly recovered from the nucleus with a nucleolar accumulation
penetration to the nucleus (U2OS cells [5]): 100%

PAKRKLFG [Pro-Ala-Lys-Arg-Lys-Leu-Phe-GIy]
IC50 [1, 6]: 0.1 µM
IC50 [1, 10]: 0.1 µM

SACRNLFG [reference compound]
IC50 [1, 10]: 0.2 µM

YGRKKRRQRRRG [Tat, reference compound]
failed to cause any morphological changes and MTS reading up to (U2OS cells [3]; U2OS): > 300 μM

YGRKKRRQRRRGPVKRRLDL [Tat-linear, YGRKKRRQRRRG PVKRRLDL]
IC50 [1]: 0.1 to 1 µM
IC50 (SW480 cells): 26 µM
IC50 (HCT-116 cells): 80 µM
IC50 (Rat1 cells): > 100 µM
IC50 (HeCat cells): > 100 µM
IC50 (MDA-MB-435 cells [2]): 48 to 50 µM
IC50 (U2OS cells [3]; U2OS): 28 to 40 µM
cell morphology (U2OS cells [3]; U2OS): rounded morphology
inhibition as measured by the MTS assay (U2OS cells [3]): dose-dependent inhibition
